In US20080293936A1, “Novel inhibitors of lysyl oxidase” (priority 2007, published 2008):

Assays:
Lysyl oxidase [1] = target: T1, Lysyl oxidase (Bos taurus, UniProt P33072); experiment: Kinetic investigation: dialysis of lysyl oxidase-inhibitor complexes against inhibitor-free buffer, recovery of activity; assay type: biochemical, bovine; details: for vt/vmax: preincubation at 10-fold IC50; for k−1: calculated from slopes; for kon: pH 8.2, from k−1 and IC50, read-out: k1 (association velocity constant) (converted)
T1 construct: The enzyme preparation was carried out at 4° C. with fresh material from bovine aorta; from tissue; host or cells: bovine aorta
T1 sequence (P33072 170-418): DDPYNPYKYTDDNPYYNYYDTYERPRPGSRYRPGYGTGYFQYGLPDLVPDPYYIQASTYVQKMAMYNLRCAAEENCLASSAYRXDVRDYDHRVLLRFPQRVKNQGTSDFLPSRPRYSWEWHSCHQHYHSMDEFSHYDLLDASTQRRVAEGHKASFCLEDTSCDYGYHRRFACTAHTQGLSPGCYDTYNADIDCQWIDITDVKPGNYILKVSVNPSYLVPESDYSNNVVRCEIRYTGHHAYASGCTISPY
Description: Lysyl oxidasee and lysyl oxidase inhibitors of the structural formulas (XX)-(XXIII) (Table 1) were coincubated at concentrations that were 10-fold over the respective IC50 of the inhibitor and were subsequently dialyzed against 0.5 M borax buffer at pH 8.2 without added inhibitor. The dialysis buffer was exchanged twice during the first hour and subsequently three times in hourly intervals. The volume against which was dialyzed was at least 100-fold greater than the volume of the lysyl oxidase preparation in the dialysis tube. After 2, 4, 5 und 19 h lysyl oxidase activity was measured as described in Example 2. In a parallel assay a dialysis with a non-inhibited lysyl oxidase preparation was carried out to determine the effect of spontaneous activity loss during dialysis and to obtain a reference value (100% activity, positive control). From the obtained change in time-dependent activity it was possible to calculate the dissociation velocity constants of the inhibitor compounds, the half life times of the enzyme-inhibitor complexes and the association velocity constants. In the following section it is derived how these kinetic parameters can be determined form the measurement of the reaction velocity with the inhibited fraction at the timepoint t (vt) and the reaction velocity with the positive control (vmax).
Derivations: During dialysis against buffer without inhibitor the complex (EI) consisting of enzyme (E) and inhibitor (I) decays with a dissociation constant of first k−1
The velocity of decay is proportional to the concentration of the enzyme-inhibitor complex:
Rearranging this equation and definite Integration from the initial enzyme-inhibitor-complex concentration ([EI]0) to the concentration of the complex at the measurement time point t ([EI]t) on the left side and from t=0 to t on the right side yields:
The ratio of the reaction velocity when the inhibited enzyme preparation is used at a measurement time point t (vt) to the reaction velocity when the positive control is used (vmax) is dependent on the proportion of the total enzyme concentration in the assay ([E]0) that is present as enzyme-inhibitor-complex concentration at a time point t ([EI]t). The following equation describes this relationship: […]
For reasons of simplification a variable Rt can be defined
Solving the above differential equation and substituting Rt into the equation one obtains: […]
By linear regression with ln Rt and t, k−1 can be determined as the coefficient of slope.
Using k−1 one can calculate the half-life time of the enzyme-inhibitor-complexes (t1/2) as:
To determine the kinetic association constant the equilibrium is considered:
At the particular inhibitor concentration (IC50) at which the reaction velocity is 50% of the reaction velocity of the positive control, the free enzyme concentration ([E]) is approximately equal to the concentration of the enzyme inhibitor complex ([EI])
By substitution into the equilibrium equation and by simple rearrangement one obtains a term for the association constant which is dependent on the dissociation constant determined above and on the IC50:
Results Tables 2a to 2d show the results from reaction velocity measurements at the time points after 0, 120, 270 and 1140 min of dialysis against an inhibitor-free buffer. The relative reaction velocities and the derived constants are provided. In addition, the results of a regression analysis according to Example 3 are provided, from which the kinetic constants from table 3 can be calculated. Results are shown for compounds (XX)-[…].

Lysyl oxidase [2] = target: T1, Lysyl oxidase; experiment: Lysyl oxidase inhibition, peroxidase-coupled fluorometric activity test; assay type: biochemical, bovine
Description: Lysyl oxidase was isolated form bovine aorta, modified according to Williams und Kagan (1985) Assessment of lysyl oxidase variants by urea gel electrophoresis: evidence against disulfide isomers as bases of the enzyme heterogeneity. Anal. Biochem. 149: 430-7, and Kagan und Sullivan (1982) Lysyl oxidase: preparation and role in elastin biosynthesis. Methods Enzymol. 82(Pt A): 637-50. The enzyme preparation was carried out at 4° C. with fresh material from bovine aorta. The aorta was homogenized for 90 seconds in 2.5. ml buffer per gram of tissue. The buffer consisted of 16 mM potassium phosphate, 150 mM sodium chloride and 1 mM phenylmethylsulfonylfluoride. The homogenized mixture was centrifuged for 20 minutes at 11,000 g. The homogenization was followed by a centrifugation step and was repeated with 150 mM sodium chloride buffer and 1 M urea buffer. The pellet that was obtained after centrifugation was homogenized in buffer plus 4 M urea, was stirred over night and centrifuged twice. The supernatants with the lysyl oxidase activity were stored each time.
To determine the specific enzyme activity of lysyl oxidase a coupled activity test with fluorescence was applied (modified according to nach Trackman P C, Zoski C G, Kagan, H M (1981) Development of a peroxidase-coupled fluorometric assay for lysyl oxidase. Anal. Biochem. 113: 336-342).
Into a 2 ml plastic cuvette the following reaction solution was pipetted:
The fluorescence of the reaction solution was determined at an excitation wavelength of 350 nm and measurement of emission was carried out at 425 nm at 37° C. Before the addition of the sample solution fluorescence was determined by calibration with 1 nmol hydrogen peroxide. This increase in fluorescence was equivalent to a turnover of 1 nmol 1,5-diaminopentane. As a positive control the time course of the increase in fluorescence when an equivalent volume of lysyl oxidase without inhibitor was added, was used. The development of fluorescence of the assay without the addition of lysyl oxidase used as a negative control. […]

[3] = regression analysis below Tables 2a-2d

Row | Rt (Lysyl oxidase [1]; 0 min of dialysis) | ln Rt (Lysyl oxidase [1]; 0 min of dialysis) | vt/vmax (Lysyl oxidase [1]; 0 min of dialysis) | Rt (Lysyl oxidase [1]; 120 min of dialysis) | ln Rt (Lysyl oxidase [1]; 120 min of dialysis) | vt/vmax (Lysyl oxidase [1]; 120 min of dialysis) | Rt (Lysyl oxidase [1]; 270 min of dialysis) | ln Rt (Lysyl oxidase [1]; 270 min of dialysis) | vt/vmax (Lysyl oxidase [1]; 270 min of dialysis) | Rt (Lysyl oxidase [1]; 1,140 min of dialysis) | vt/vmax (Lysyl oxidase [1]; 1,140 min of dialysis) | k−1 (Lysyl oxidase [1]; Table 3) [h⁻¹] | kon (Lysyl oxidase [1]; Table 3) [M⁻¹ s⁻¹] | ln Rt (Lysyl oxidase [1]; 1,140 min of dialysis) | k−1 (dissociation velocity constant) (Lysyl oxidase [1]; [3]) [h⁻¹] | residence time (Lysyl oxidase [1]; Table 3, from k−1, read-out: t1/2 (half-life time of the enzyme-inhibitor complex) (converted)) [min] | slope (linear regression of ln Rt against t) (Lysyl oxidase [1]; [3]) | IC50 (Lysyl oxidase [2]; Table 1, lysyl oxidase from bovine aorta, 37° C., pH 8.2) [µM] | IC50 (Lysyl oxidase [2]; Table 3) [µM] | IC50 (Lysyl oxidase [2]; as quoted in titles of Tables 2a-2d) [µM] | SMILES
1 | 1 | 0 | 0 | 0.91 | −9.431 × 10^−2 | 9 × 10^−2 | 0.72 | −0.3285 | 0.28 | 0 | 1 | 0.053 | 13.6 | – | – | – | – | – | – | – | COCCc1ccc(Oc2c(-n3ccnc3)cnn(-c3ccc(Cl)cc3)c2=O)cc1 [(XX), 2-(4-chlorophenyl)-5-(1H-imidazole-1-yl)-4-[4-(2-methoxyethyl)phenoxy]pyridazine-3(2H)-one]
2 | 1 | 0 | 0 | 0.75 | −0.2877 | 0.25 | 0.64 | −0.4463 | 0.36 | 0.33 | 0.67 | 0.074 | 75 | −1.109 | 0.05344 | – | – | – | – | – | O=c1c(Oc2ccc(-c3ccccc3)cc2)c(-n2ccnc2)cnn1-c1ccc(Cl)cc1Cl [(XXII), 4-(1,1′-biphenyl-4-yloxy)-2-(2,4-dichlorophenyl)-5-(1H-imidazole-1-yl)pyridazine-3(2H)-one]
3 | 0.84 | −0.1744 | 0.16 | 0.47 | −0.7550 | 0.53 | 0.37 | −0.9943 | 0.63 | 0.11 | 0.89 | 0.097 | 18.3 | −2.207 | 0.09694 | 438 | −1.616×10^−3 1/min | 1.47 | 1.47 | ~1.47 | CCCc1ccc(Oc2c(-n3ccnc3)cnn(-c3ccc(Cl)cc3)c2=O)cc1 [(XXIII), 2-(4-chlorophenyl)-5-(1H-imidazole-1-yl)-4-(4-propylphenoxy)pyridazine-3(2H)-one]
